The target of assay [1] is T1, IDO1 (Homo sapiens, UniProt P14902). Description: IDO1 Human Whole blood Assay. The class given is cell-based. On the set-up: Human whole blood was drawn in sodium heparin coated tubes from healthy internal donors; from tissue; host or cells: human whole blood from healthy donors, stimulated with LPS and IFNγ. The conditions noted are these: LPS and IFNγ stimulated, 18 h, read-out: Human Whole Blood Potency, IC50. The method, then:
IDO1Human Whole blood Assay
Compounds to be tested were serially diluted in ten 3-fold steps in DMSO starting from 10 mM. 3 μL of compound dilutions or DMSO alone were then dispensed from the dilution plate into a polypropylene 96-well assay plate containing 97 μL of RPMI medium using an Echo 555 acoustic liquid handler (Labcyte). LPS and IFNγ was prepared in RPMI medium to a 10× of final conc. (1000 ng/mL), final concentration is 100 ng/mL.
Human whole blood was drawn in sodium heparin coated tubes from healthy internal donors. 240 μL of blood was transferred to each of the wells of a v-bottom 96 well plate. 30 μL of compound was transferred from intermediate dilution plate, and incubated for 15 min. 30 μL from stimulants was then transferred to blood and mixed thoroughly. Plate was covered with breathable membrane and incubated at 37° C. for overnight (18 h).
On day 2, isotope labeled standard solutions of kynurenine and tryptophan was made in water at 10× concentration and 30 μL was added to the blood at 3 μM final concentration. The assay plates were centrifuged at 300×G for 10 min with no brake to separate plasma from red blood cells. 60 μL of plasma samples was removed without disturbing red blood cells. Plasma was diluted with RPMI in 1:1 ratio and proteins were precipitated out with two volumes of Acetonitrile. The plates were centrifuged at 4000×G for 60 min. 20 μL of supernatant was carefully transferred to a 384 well plate containing 40 μL of 0.1% formic acid in water and analyzed by LC/MS/MS.
LC/MS/MS analyses were performed using Thermo Fisher's LX4-TSQ Quantum Ultra system. This system consists of four Agilent binary high-performance liquid chromatography (HPLC) pumps and a TSQ Quantum Ultra triple quadrupole MS/MS instrument. For each sample, 5 μL were injected onto an Atlantis T3 column (2.1 mm×150 mm, 3 μm particle size) from Waters. The mobile phase gradient pumped at 0.8 mL/min was used to elute the analytes from the column at 25° C. The elution started at 0% B increasing linearly to 25% B at 6.5 min, holding at 25% for 1 min, re-equilibrating to 10 min. Mobile phase A consisted of 0.1% formic acid in water. Mobile phase B consisted of 0.1% of formic acid in acetonitrile. Data were acquired in positive mode using a HESI interface. The operational parameters for the TSQ Quantum Ultra instrument were a spray voltage of 4000 V, capillary temperature of 380° C., vaporizer temperature 400° C., shealth gas 60 arbitrary units, Aux gas 20 arbitrary units, tube lens 85 and collision gas 1.2 mTorr. SRM chromatograms of kynurenine (Q1: 209.2>Q3:94.0) and internal standard (Q1: 215.3>Q3:98.2) were collected for 90 sec. The peak area was integrated by Xcalibur Quan software. The ratios between the kynurenine generated in the reaction and 2D6-Kynurenine spiked-in internal standard were used to generate percentage inhibition and IC50 values. Compounds were titrated and IC50's were calculated by 4 parameter sigmoidal curve fitting formula.

The target in assay [2] is T1, IDO1. Description: IDO1 Cellular Assay in HeLa Cells Stimulated with IFNγ. The class given is cell-based. The conditions noted are these: read-out: HeLa Cell Potency, IC50.

T1 sequence (P14902 whole entry): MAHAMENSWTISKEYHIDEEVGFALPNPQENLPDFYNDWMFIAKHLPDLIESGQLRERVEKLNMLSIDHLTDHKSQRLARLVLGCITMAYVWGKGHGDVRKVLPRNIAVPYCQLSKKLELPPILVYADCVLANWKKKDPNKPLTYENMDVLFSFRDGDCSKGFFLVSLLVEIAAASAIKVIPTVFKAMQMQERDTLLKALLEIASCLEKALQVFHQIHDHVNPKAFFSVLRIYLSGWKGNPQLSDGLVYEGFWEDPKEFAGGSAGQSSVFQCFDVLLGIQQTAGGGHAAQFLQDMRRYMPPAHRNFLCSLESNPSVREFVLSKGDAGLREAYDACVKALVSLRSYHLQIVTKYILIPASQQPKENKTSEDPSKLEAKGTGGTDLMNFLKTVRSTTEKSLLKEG

On to `Cc1cccc(N2CCN(C(=O)Cn3nc(C(=O)N4CCC(CO)CC4)c4c3CCC4)CC2)c1C` [Example 101, 1-[4-(2,3-dimethylphenyl)piperazin-1-yl]-2-{3-[4-(hydroxymethyl)piperidine-1-carbonyl]-5,6-dihydrocyclopenta[c]pyrazol-1(4H)-yl}ethan-1-one], for which the IC50 on IDO1 [1] came to 711 nM; on IDO1 [2] it was 6.12 nM.

`Cc1cccc(N2CCN(C(=O)Cn3nc(C(=O)N4CC[C@@H](O)[C@@H](C)C4)c4c3CCC4)CC2)c1C` [Example 106, 1-[4-(2,3-dimethylphenyl)piperazin-1-yl]-2-{3-[(3S,4R)-4-hydroxy-3-methylpiperidine-1-carbonyl]-5,6-dihydrocyclopenta[c]pyrazol-1(4H)-yl}ethan-1-one]: the IC50 at IDO1 [1] is 802 nM; at IDO1 [2] it was 3.87 nM.

Consider `Cc1cccc(N2CCN(C(=O)Cn3nc(C(=O)N4CC[C@H](O)[C@H](C)C4)c4c3CCC4)CC2)c1C` [Example 107, 1-[4-(2,3-dimethylphenyl)piperazin-1-yl]-2-{3-[(3R,4S)-4-hydroxy-3-methylpiperidine-1-carbonyl]-5,6-dihydrocyclopenta[c]pyrazol-1(4H)-yl}ethan-1-one], for which the figures for the IC50 at IDO1 [1] and at IDO1 [2] were 154 nM and 1.2 nM, respectively.

`Cc1cccc(N2CCN(C(=O)Cn3nc(C(=O)N4CC[C@@H](O)[C@H](C)C4)c4c3CCC4)CC2)c1C` [Example 108, 1-[4-(2,3-dimethylphenyl)piperazin-1-yl]-2-{3-[(3R,4R)-4-hydroxy-3-methylpiperidin-1-carbonyl]-5,6-dihydrocyclopenta[c]pyrazol-1(4H)-yl}ethan-1-one]: the results for the IC50 at IDO1 [1] and on IDO1 [2] were 77 nM and 1.79 nM, respectively.

For the compound `Cc1cccc(N2CCN(C(=O)Cn3nc(C(=O)N4CC[C@H](O)[C@@H](C)C4)c4c3CCC4)CC2)c1C` [Example 109, 1-[4-(2,3-dimethylphenyl)piperazin-1-yl]-2-{3-[(3S,4S)-4-hydroxy-3-methylpiperidine-1-carbonyl]-5,6-dihydrocyclopenta[c]pyrazol-1(4H)-yl}ethan-1-one], the IC50 was 399 nM on IDO1 [1] and 1.86 nM on IDO1 [2].

Take `Cc1cccc(N2CCN(C(=O)Cn3nc(C(=O)N4CCC(OCCO)CC4)c4c3CCC4)CC2)c1C` [Example 120, 1-[4-(2,3-dimethylphenyl)piperazin-1-yl]-2-{3-[4-(2-hydroxyethoxy)piperidine-1-carbonyl]-5,6-dihydrocyclopenta[c]pyrazol-1(4H)-yl}ethan-1-one]: the IC50 on IDO1 [1] worked out at 199 nM; at IDO1 [2], 2.97 nM.

Regarding `Cc1cccc(N2CCN(C(=O)Cn3nc(C(=O)N4CCN(S(C)(=O)=O)C[C@@H]4C)c4c3CCC4)CC2)c1C` [Example 124, 1-[4-(2,3-dimethylphenyl)piperazin-1-yl]-2-{3-[(2S)-2-methyl-4-(methylsulfonyl)piperazine-1-carbonyl]-5,6-dihydrocyclopenta[c]pyrazol-1(4H)-yl}ethan-1-one], the IC50 was 877 nM on IDO1 [1] and 1.32 nM at IDO1 [2].

With `Cc1cccc(N2CCN(C(=O)Cn3nc(C(=O)N4CC[C@@H](O)C[C@@H]4C)c4c3CCC4)CC2)c1C` [Example 125, 1-[4-(2,3-dimethylphenyl)piperazin-1-yl]-2-{3-[(2S,4R)-4-hydroxy-2-methylpiperidine-1-carbonyl]-5,6-dihydrocyclopenta[c]pyrazol-1(4H)-yl}ethan-1-one], the IC50 on IDO1 [1] is 444 nM; on IDO1 [2], 3.29 nM.

Take `COC1CCN(C(=O)c2nn(CC(=O)N3CCN(c4cccc(C)c4C)CC3)c3c2CCC3)CC1` [Example 126, 1-[4-(2,3-dimethylphenyl)piperazin-1-yl]-2-[3-(4-methoxypiperidine-1-carbonyl)-5,6-dihydrocyclopenta[c]pyrazol-1(4H)-yl]ethan-1-one]: the IC50 was determined as 300 nM on IDO1 [1] and 2.61 nM at IDO1 [2].

For `Cc1cccc(N2CCN(C(=O)Cn3nc(C(=O)N4CCN(S(C)(=O)=O)CC4)c4c3CCC4)CC2)c1C` [Example 127, 1-[4-(2,3-dimethylphenyl)piperazin-1-yl]-2-{3-[4-(methylsulfonyl)piperazine-1-carbonyl]-5,6-dihydrocyclopenta[c]pyrazol-1(4H)-yl}ethan-1-one], the IC50 at IDO1 [1] came to 126 nM; on IDO1 [2], 2.36 nM.

Take `CC(=O)NC1CCN(C(=O)c2nn(CC(=O)N3CCN(c4cccc(C)c4C)CC3)c3c2CCC3)CC1` [Example 128, N-[1-(1-{2-[4-(2,3-dimethylphenyl)piperazin-1-yl]-2-oxoethyl}-1,4,5,6-tetrahydrocyclopenta[c]pyrazole-3-carbonyl)piperidin-4-yl]acetamide]: the values for the IC50 at IDO1 [1] and at IDO1 [2] were 192 nM and 4.07 nM, respectively.

Consider `Cc1cccc(N2CCN(C(=O)Cn3nc(C(=O)N4CCC(n5ncnn5)CC4)c4c3CCC4)CC2)c1C` [Example 129, 1-[4-(2,3-dimethylphenyl)piperazin-1-yl]-2-{3-[4-(2H-tetrazol-2-yl)piperidine-1-carbonyl]-2,6-dihydrocyclopenta[c]pyrazol-1(4H)-yl}ethan-1-one], for which the figures for the IC50 at IDO1 [1] and on IDO1 [2] were 311 nM and 3.08 nM, respectively.

In the case of `Cc1cccc(N2CCN(C(=O)Cn3nc(C(=O)N4CCC(N5CCNC5=O)CC4)c4c3CCC4)CC2)c1C` [Example 130, 1-[1-(1-{2-[4-(2,3-dimethylphenyl)piperazin-1-yl]-2-oxoethyl}-1,4,5,6-tetrahydrocyclopenta[c]pyrazole-3-carbonyl)piperidin-4-yl]imidazolidin-2-one], the values for the IC50 on IDO1 [1] and at IDO1 [2] were 175 nM and 3.54 nM, respectively.

Take `Cc1cccc(N2CCN(C(=O)Cn3nc(C(=O)N4CCC(O)(CO)CC4)c4c3CCC4)CC2)c1C` [Example 141, 1-[4-(2,3-dimethylphenyl)piperazin-1-yl]-2-{3-[4-hydroxy-4-(hydroxymethyl)piperidine-1-carbonyl]-5,6-dihydrocyclopenta[c]pyrazol-1(4H)-yl}ethan-1-one]: the IC50 at IDO1 [1] was 360 nM; on IDO1 [2], 11.3 nM.

For the compound `Cc1cccc(N2CCN(C(=O)Cn3nc(C(=O)N4CCC(c5cn[nH]c5)CC4)c4c3CCC4)CC2)c1C` [Example 142, 1-[4-(2,3-dimethylphenyl)piperazin-1-yl]-2-{3-[4-(1H-pyrazol-4-yl)piperidine-1-carbonyl]-5,6-dihydrocyclopenta[c]pyrazol-1(4H)-yl}ethan-1-one], the IC50 at IDO1 [1] turned out to be 48 nM; on IDO1 [2], 1.29 nM.

With `Cc1cccc(N2CCN(C(=O)Cn3nc(C(=O)N4CCC5(CCOC5=O)CC4)c4c3CCC4)CC2)c1C` [Example 146, 8-(1-{2-[4-(2,3-dimethylphenyl)piperazin-1-yl]-2-oxoethyl}-1,4,5,6-tetrahydrocyclopenta[c]pyrazole-3-carbonyl)-2-oxa-8-azaspiro[4.5]decan-1-one], the IC50 on IDO1 [1] was 150 nM; on IDO1 [2] it was 2.39 nM.

On to `Cc1cccc(N2CCN(C(=O)Cn3nc(C(=O)N4CCCC(CO)C4)c4c3CCC4)CC2)c1C` (stereo not shown) [Example 147, 1-[4-(2,3-dimethylphenyl)piperazin-1-yl]-2-{3-[3-(hydroxymethyl)piperidine-1-carbonyl]-5,6-dihydrocyclopenta[c]pyrazol-1(4H)-yl}ethan-1-one], for which the 50% inhibitory concentration (IC50) on IDO1 [1] stood at 607 nM; at IDO1 [2], 2.84 nM.

The IC50 is the point on the concentration scale where inhibition reaches its midpoint.

The values above are taken from patent publication US12264134B2 (Merck Sharp & Dohme LLC, priority 2018, dated 2025).
